Test results: patent publication US9603930B2, “Liquid bendamustine formulation” (Navinta, LLC, priority 2014, dated 2017)

Assays:
[1] = 2 months of storage at 25° C.; cited from earlier work
[2] = polyethylene glycol alone; from U.S. Pat. No. 8,609,707; cited from earlier work
[3] = Solubility of bendamustine in solvents

Structure (SMILES)	stability of the solid on storage [1]	solubility in PEG alone [2]	solubility in glycerin [3]
Cl.Cn1c(CCCC(=O)O)nc2cc(N(CCCl)CCCl)ccc21	degrades	–	–
Cn1c(CCCC(=O)O)nc2cc(N(CCCl)CCCl)ccc21 [Bendamustine, 4-[5-[bis(2-chloroethyl)amino]-1-methylbenzimidazol-2-yl]butanoic acid]	–	poorly soluble	very high solubility
